Data: ChEMBL document CHEMBL1201862, “PubChem BioAssay data set” (2004)
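Where inhibition never reached the appropriate level, the endpoint shown equals the highest concentration tested. Otherwise, values were interpolated linearly from a five-concentration, 48-hour dose response in 96-well plates. GI50 marks 50% less growth.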 The source made the active and inactive calls. No stated cut-off is given here; in the data, active = GI50 up to about 1.1 µM and inactive = higher.

Tests used:
Test in all cases: DTP human tumour cell line panel, 48 h
[1] = system: COLO 205
[2] = system: EKVX
[3] = system: HCC 2998
[4] = system: HCT-116
[5] = system: HL-60
[6] = system: HOP-92
[7] = system: LOX IMVI
[8] = system: MCF7
[9] = system: MDA-MB-435
[10] = system: NCI-H23
[11] = system: NCI-H460
[12] = system: NCI-H522
[13] = system: NCI/ADR-RES
[14] = system: PC-3
[15] = system: RPMI-8226
[16] = system: SK-MEL-2
[17] = system: T47D
[18] = system: UACC-257
[19] = system: SNB-75

Measured: GI50

O=C(c1cccs1)N1CCc2ccccc2C1
inactive: [1] > 100 µM | [2] 97.1 µM | [3] > 100 µM | [4] 38.2 µM | [5] 30.7 µM | [6] 26.6 µM | [7] > 100 µM | [8] > 100 µM | [9] 33.3 µM | [10] > 100 µM | [11] > 100 µM | [12] > 100 µM | [13] 42.1 µM | [14] > 100 µM | [15] 85.9 µM | [16] > 100 µM | [17] > 100 µM | [18] > 100 µM

COC(=O)C(Cc1ccccc1)NC(=O)C(CCCNC(=N)N)NC(=O)OCc1ccccc1 (centres undefined)
inactive: [1] > 100 µM | [2] > 100 µM | [3] > 100 µM | [4] > 100 µM | [5] > 100 µM | [6] > 100 µM | [7] > 100 µM | [8] > 100 µM | [9] > 100 µM | [10] > 100 µM | [11] > 100 µM | [12] > 100 µM | [13] > 100 µM | [14] > 100 µM | [15] > 100 µM | [19] > 100 µM | [17] > 100 µM

CCc1cc2c(c3c1CCC3=O)CC1(Cc3ccc(C)cc3C1)C2 (centres undefined)
inactive: [1] 27.8 µM | [2] 16.8 µM | [3] 33.9 µM | [4] 17.6 µM | [5] 21.7 µM | [6] 22.7 µM | [7] 50.4 µM | [8] 32.2 µM | [9] 33.7 µM | [10] > 100 µM | [12] 23.8 µM | [13] > 100 µM | [14] 23 µM | [15] 22.2 µM | [16] 31.5 µM | [17] 14.1 µM | [18] 32.2 µM

CC(C)(C)C(=O)CC1(O)C=C(O)C(O)(CC(=O)C(C)(C)C)O1 (centres undefined)
inactive: [1] 21.7 µM | [2] 61.1 µM | [3] > 100 µM | [4] 4.71 µM | [5] 24.9 µM | [6] 29.9 µM | [7] 12.5 µM | [8] 24.8 µM | [9] 41.9 µM | [10] 22.1 µM | [11] 10.1 µM | [12] 20.4 µM | [13] 20.9 µM | [14] 44.8 µM | [15] 19.7 µM | [16] 38.7 µM | [17] > 100 µM | [18] 42.3 µM

Cc1cccc2c1CC1(Cc3ccccc3C1=O)C2=O (centres undefined)
inactive: [1] > 100 µM | [2] > 100 µM | [3] > 100 µM | [4] > 100 µM | [5] > 100 µM | [6] 76.9 µM | [7] > 100 µM | [8] > 100 µM | [9] > 100 µM | [10] > 100 µM | [11] > 100 µM | [12] > 100 µM | [13] > 100 µM | [14] > 100 µM | [15] > 100 µM | [19] 77.4 µM | [17] > 100 µM | [18] > 100 µM

COC(=O)CN(CC1O[C@@H]2OC(C)(C)O[C@@H]2C1NC(C)=O)C(=O)OCc1ccccc1 (some centres undefined)
inactive: [1] > 100 µM | [2] > 100 µM | [3] > 100 µM | [4] > 100 µM | [5] > 100 µM | [6] > 100 µM | [7] > 100 µM | [8] > 100 µM | [9] > 100 µM | [11] > 100 µM | [12] > 100 µM | [13] > 100 µM | [14] > 100 µM | [15] > 100 µM | [16] > 100 µM | [19] > 100 µM | [17] > 100 µM | [18] > 100 µM

O[C@@H]1[C@H](OC2c3ccccc3-c3ccccc32)[C@H](OCc2ccccc2)[C@@H]2OC[C@H]1O2
inactive: [1] > 100 µM | [2] > 100 µM | [3] 75.7 µM | [4] 41.5 µM | [5] > 100 µM | [6] > 100 µM | [7] > 100 µM | [8] > 100 µM | [9] > 100 µM | [10] > 100 µM | [12] > 100 µM | [13] > 100 µM | [14] 63.2 µM | [15] 71.9 µM | [16] > 100 µM | [17] > 100 µM | [18] > 100 µM

O=C1C[C@@H](c2ccccc2)NCCCCN(O)CCCN1
inactive: [1] > 100 µM | [2] > 100 µM | [3] > 100 µM | [4] > 100 µM | [5] > 100 µM | [6] > 100 µM | [7] > 100 µM | [8] > 100 µM | [9] > 100 µM | [10] > 100 µM | [12] > 100 µM | [13] > 100 µM | [14] > 100 µM | [15] 22.3 µM | [16] > 100 µM | [19] > 100 µM | [17] > 100 µM | [18] > 100 µM

O=c1[nH]c2nc[nH]c2c(=O)n1C1CCCCC1
inactive: [1] > 100 µM | [2] > 100 µM | [3] > 100 µM | [4] > 100 µM | [5] 6.01 µM | [6] > 100 µM | [8] > 100 µM | [9] > 100 µM | [10] > 100 µM | [11] > 100 µM | [12] > 100 µM | [13] > 100 µM | [14] > 100 µM | [15] > 100 µM | [16] 72.9 µM | [19] > 100 µM | [17] > 100 µM | [18] > 100 µM

COc1ccc(NC(/C(C(=O)c2ccccc2)=C(\O)C(=O)/C=C(\O)c2ccccc2)c2ccc(OC)cc2)cc1 (centres undefined)
inactive: [1] 31 µM | [2] 18.7 µM | [3] 26.6 µM | [4] 35.8 µM | [5] 34.1 µM | [6] 7.6 µM | [8] 39.5 µM | [9] 20.6 µM | [10] 47 µM | [11] 43.6 µM | [12] 15.2 µM | [13] 40.3 µM | [14] 39.3 µM | [15] 24.2 µM | [16] 23.6 µM | [19] 17.8 µM | [17] 24.5 µM | [18] 40.7 µM

CC(=O)O[C@H]1CC[C@@]2(C)C(=CC[C@@H]3[C@@H]2CC[C@]2(C)c4c(C)nn(-c5ccccc5)c4C[C@@H]32)C1
inactive: [1] 15.5 µM | [2] 14.9 µM | [3] 16.4 µM | [4] 31 µM | [5] 24.2 µM | [6] 22.2 µM | [7] 12.3 µM | [8] 32.8 µM | [9] 45.7 µM | [10] 13.2 µM | [11] 13.8 µM | [12] 13.7 µM | [13] 34.9 µM | [14] 26.7 µM | [19] 15.6 µM | [17] 33 µM | [18] 29.9 µM
